In PubChem BioAssay AID248 (DTP/NCI, 2004):
Inconclusive results and toxic doses are left out. Cut-off read from the data, not from the text of the source: active = T/C of 150% or more; inactive = T/C below 125%.

System: L1210 leukemia ip in BDF1 mice, survival T/C
Test: NCI In Vivo Anticancer Drug Screen. Data for tumor model L1210 Leukemia (intraperitoneal) in B6D2F1 (BDF1) mice
Settings: endpoint: mean survival time, higher = longer survival
Summary of the method: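 Tumor was transplanted into mice, which were then dosed with test compound or vehicle alone. Survival was recorded for each group, and the treated figure was expressed relative to the control figure.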

[1] = dose: 75.0 mg/kg/injection, schedule: Q01DX009 (ip), vehicle: Klucel (hydroxypropylcellulose) (HPC)
[2] = dose: 150.0 mg/kg/injection, schedule: Q01DX009 (ip), vehicle: Klucel (hydroxypropylcellulose) (HPC)
[3] = dose: 300.0 mg/kg/injection, schedule: Q01DX009 (ip), vehicle: Klucel (hydroxypropylcellulose) (HPC)
[4] = dose: 100.0 mg/kg/injection, schedule: Q01DX009 (ip), vehicle: Klucel (hydroxypropylcellulose) (HPC)
[5] = dose: 100.0 mg/kg/injection, schedule: Q04DX003 (ip), vehicle: Klucel (hydroxypropylcellulose) (HPC)
[6] = dose: 200.0 mg/kg/injection, schedule: Q01DX009 (ip), vehicle: Klucel (hydroxypropylcellulose) (HPC)
[7] = dose: 200.0 mg/kg/injection, schedule: Q04DX003 (ip), vehicle: Klucel (hydroxypropylcellulose) (HPC)
[8] = dose: 400.0 mg/kg/injection, schedule: Q01DX009 (ip), vehicle: Klucel (hydroxypropylcellulose) (HPC)
[9] = dose: 400.0 mg/kg/injection, schedule: Q04DX003 (ip), vehicle: Klucel (hydroxypropylcellulose) (HPC)
[10] = dose: 100.0 mg/kg/injection, schedule: Q01DX001 (ip), vehicle: saline
[11] = dose: 200.0 mg/kg/injection, schedule: Q01DX001 (ip), vehicle: saline
[12] = dose: 400.0 mg/kg/injection, schedule: Q01DX001 (ip), vehicle: saline
[13] = dose: 50.0 mg/kg/injection, schedule: Q01DX001 (ip), vehicle: saline

Measured: T/C

CC(=O)NC(C)c1ccccc1 (stereo not drawn)
inactive: dose: 50.0 mg/kg/injection, schedule: Q04DX002 (ip), vehicle: Klucel (hydroxypropylcellulose) (HPC) 108 % of control | [1] 96 % of control | dose: 100.0 mg/kg/injection, schedule: Q04DX002 (ip), vehicle: Klucel (hydroxypropylcellulose) (HPC) 108 % of control | [2] 89 % of control | dose: 200.0 mg/kg/injection, schedule: Q04DX002 (ip), vehicle: Klucel (hydroxypropylcellulose) (HPC) 108 % of control | [3] 100 % of control | dose: 400.0 mg/kg/injection, schedule: Q04DX002 (ip), vehicle: Klucel (hydroxypropylcellulose) (HPC) 111 % of control

Cc1ccc(S(=O)(=O)Oc2ccc(Cl)cc2)cc1
inactive: [4] 102 % of control | [5] 105 % of control | [6] 98 % of control | [7] 97 % of control | [8] 102 % of control | [9] 101 % of control

[O-][N+](=C1c2ccccc2-c2ccccc21)c1ccccc1
inactive: dose: 100.0 mg/kg/injection, schedule: Q04DX003 (ip), vehicle: saline 94 % of control | dose: 200.0 mg/kg/injection, schedule: Q04DX003 (ip), vehicle: saline 92 % of control | dose: 400.0 mg/kg/injection, schedule: Q04DX003 (ip), vehicle: saline 94 % of control

CCCC(C)(Cl)C(=O)Nc1cccc(OC(=O)NC)c1 (stereo not drawn)
inactive: dose: 100.0 mg/kg/injection, schedule: Q04DX003 (ip), vehicle: saline with Tween-80 92 % of control | dose: 200.0 mg/kg/injection, schedule: Q04DX003 (ip), vehicle: saline with Tween-80 90 % of control | dose: 400.0 mg/kg/injection, schedule: Q04DX003 (ip), vehicle: saline with Tween-80 90 % of control

Cc1c(C)c2c(C#N)c3ccccc3nc2c2ccccc12
inactive: dose: 50.0 mg/kg/injection, schedule: Q04DX003 (ip), vehicle: Klucel (hydroxypropylcellulose) (HPC) 102 % of control | [5] 102 % of control | [7] 107 % of control | [9] 103 % of control

CCCN(CCC)C(=S)[S-].CCCN(CCC)C(=S)[S-].[Zn]
inactive: dose: 100.0 mg/kg/injection, schedule: Q04DX003 (ip), vehicle: saline sonified 100 % of control | dose: 200.0 mg/kg/injection, schedule: Q04DX003 (ip), vehicle: saline sonified 91 % of control | dose: 400.0 mg/kg/injection, schedule: Q04DX003 (ip), vehicle: saline sonified 86 % of control

O=S(=O)(/N=[N+](\[O-])c1ccccc1)c1ccccc1
inactive: [10] 103 % of control | [11] 100 % of control | [12] 103 % of control

[CH3][Sn]([CH3])=[O]
inactive: dose: 5.0 mg/kg/injection, schedule: Q01DX001 (ip), vehicle: other 95 % of control | dose: 5.0 mg/kg/injection, schedule: Q01DX001 (ip), vehicle: saline 107 % of control | dose: 10.0 mg/kg/injection, schedule: Q01DX001 (ip), vehicle: other 98 % of control | dose: 10.0 mg/kg/injection, schedule: Q01DX001 (ip), vehicle: saline 98 % of control | dose: 20.0 mg/kg/injection, schedule: Q01DX001 (ip), vehicle: other 93 % of control | dose: 20.0 mg/kg/injection, schedule: Q01DX001 (ip), vehicle: saline 108 % of control | dose: 40.0 mg/kg/injection, schedule: Q01DX001 (ip), vehicle: other 103 % of control | dose: 40.0 mg/kg/injection, schedule: Q01DX001 (ip), vehicle: saline 95 % of control

CCCCCCCCCCCCNCCC#N
inactive: dose: 100.0 mg/kg/injection, schedule: Q04DX002 (sc), vehicle: olive oil, sesame oil, peanut oil 100 % of control | dose: 200.0 mg/kg/injection, schedule: Q04DX002 (sc), vehicle: olive oil, sesame oil, peanut oil 98 % of control | dose: 400.0 mg/kg/injection, schedule: Q04DX002 (sc), vehicle: olive oil, sesame oil, peanut oil 98 % of control

O=C(COc1cccc(Cl)c1)Nc1cccc(S(=O)(=O)O)c1 (tested in a mixture with another compound)
inactive: dose: 100.0 mg/kg/injection, schedule: Q01DX001 (ip), vehicle: Klucel (hydroxypropylcellulose) (HPC) 100 % of control | dose: 200.0 mg/kg/injection, schedule: Q01DX001 (ip), vehicle: Klucel (hydroxypropylcellulose) (HPC) 99 % of control | dose: 400.0 mg/kg/injection, schedule: Q01DX001 (ip), vehicle: Klucel (hydroxypropylcellulose) (HPC) 87 % of control

COc1cc(N(CCCl)CCCl)ccc1/C=N\NC(=O)c1cccnc1
inactive: dose: 25.0 mg/kg/injection, schedule: Q01DX009 (ip), vehicle: Klucel (hydroxypropylcellulose) (HPC) 87 % of control | [13] 105 % of control | dose: 50.0 mg/kg/injection, schedule: Q01DX009 (ip), vehicle: Klucel (hydroxypropylcellulose) (HPC) 88 % of control | [10] 105 % of control | [4] 90 % of control | [11] 100 % of control | [6] 96 % of control | [12] 97 % of control

CNCC1OC(n2cc(C)c(=O)[nH]c2=O)CC1O (stereo not drawn)
inactive: dose: 25.0 mg/kg/injection, schedule: Q04DX002 (ip), vehicle: saline 108 % of control | dose: 50.0 mg/kg/injection, schedule: Q04DX002 (ip), vehicle: saline 115 % of control | dose: 100.0 mg/kg/injection, schedule: Q04DX002 (ip), vehicle: saline 97 % of control

CC(=O)O/N=C1\c2ccccc2-c2ccc([N+](=O)[O-])cc21
inactive: [1] 93 % of control | [5] 97 % of control | [2] 86 % of control | [7] 95 % of control | [3] 86 % of control | [9] 100 % of control

Cc1nccn1C(/C(=N/O)c1ccccc1)c1ccccc1 (stereo not drawn)
inactive: dose: 100.0 mg/kg/injection, schedule: Q01DX009 (ip), vehicle: saline with Tween-80 96 % of control | dose: 200.0 mg/kg/injection, schedule: Q01DX009 (ip), vehicle: saline with Tween-80 96 % of control | dose: 400.0 mg/kg/injection, schedule: Q01DX009 (ip), vehicle: saline with Tween-80 94 % of control

COc1ccc(Cl)cc1NC(=O)COc1ccc(Cl)cc1
inactive: [4] 96 % of control | [5] 102 % of control | [6] 107 % of control | [7] 122 % of control | [8] 96 % of control | [9] 90 % of control

COc1ccc(C2(OC)Oc3ccccc3-c3nc4ccccc4nc32)cc1 (stereo not drawn)
inactive: [13] 95 % of control | [10] 95 % of control | [11] 87 % of control | [12] 95 % of control

O=C(O)c1ccc(F)c(F)c1
inactive: dose: 100.0 mg/kg/injection, schedule: Q04DX002 (ip), vehicle: other 110 % of control | dose: 200.0 mg/kg/injection, schedule: Q04DX002 (ip), vehicle: other 115 % of control | dose: 400.0 mg/kg/injection, schedule: Q04DX002 (ip), vehicle: other 107 % of control

O=C(O)C1OC(Oc2ccc3oc4ccccc4c(=O)c3c2)C(O)C(O)C1O (stereo not drawn)
inactive: [4] 91 % of control | [6] 97 % of control | [8] 111 % of control

Cc1ccc(S(=O)(=O)N2CCCC(=O)c3ccc(Cl)cc32)cc1
inactive: [4] 101 % of control | [5] 96 % of control | [6] 104 % of control | [7] 100 % of control | [8] 95 % of control | [9] 91 % of control

O=[N+]([O-])c1ccc(N=Nc2ccc3c(c2)-c2ccccc2C3=P(c2ccccc2)(c2ccccc2)c2ccccc2)cc1
inactive: dose: 100.0 mg/kg/injection, schedule: Q01DX001 (ip), vehicle: carboxymethylcellulose (CMC) 108 % of control | dose: 200.0 mg/kg/injection, schedule: Q01DX001 (ip), vehicle: carboxymethylcellulose (CMC) 98 % of control | dose: 400.0 mg/kg/injection, schedule: Q01DX001 (ip), vehicle: carboxymethylcellulose (CMC) 93 % of control
